# Experiments:
# [1] = Metabolic stability in human liver microsomes assessed as intrinsic clearance at 1 uM preincubated for 10 mins followed by NADPH addition and measured after 5 to 60 mins by LC-MS/MS analysis; assay type: ADME, Microsome; conditions: time 15-70 min, read-out: CLH
# [2] = Metabolic stability in mouse liver microsomes assessed as half life at 1 uM preincubated for 10 mins followed by NADPH addition and measured after 5 to 60 mins by LC-MS/MS analysis; assay type: ADME, Microsome; conditions: time 15-70 min
# [3] = Metabolic stability in mouse liver microsomes assessed as intrinsic clearance at 1 uM preincubated for 10 mins followed by NADPH addition and measured after 5 to 60 mins by LC-MS/MS analysis; assay type: ADME, Microsome; conditions: time 15-70 min, read-out: CLH
# DNA gyrase [4] = biological target: DNA gyrase (Escherichia coli, UniProt P0AES4+P0AES6); test: Inhibition of Escherichia coli DNA gyrase by supercoiling plate assay; assay type: protein-complex assay
# Escherichia coli [5] = test: Inhibition of Escherichia coli DNA topoisomerase-IV assessed as residual activity at 1 uM by relaxation plate assay relative to control
# [6] = biological target: T1, DNA topoisomerase 2-alpha (Homo sapiens, UniProt P11388); test: Inhibition of human DNA topoisomerase 2-alpha using linear pBR322 as substrate assessed as conversion of NADH to NAD+ by measuring residual activity at 100 uM preincubated for 10 to 15 mins in presence of pyruvate kinase/lactate dehydrogenase mix followed by ATP addition and measured after 30 mins by ATPase assay relative to control; conditions: time 40-55 min
# Staphylococcus aureus [7] = test: Antibacterial activity against Staphylococcus aureus ATCC 29213 assessed as inhibition of bacterial growth by broth microdilution method; assay type: functional
# Staphylococcus aureus [8] = test: Antibacterial against methicillin resistant Staphylococcus aureus ATCC 43300 assessed as inhibition of bacterial growth by broth microdilution method; assay type: functional; conditions: time 24 hrs
# Staphylococcus aureus [9] = test: Antibacterial against vancomycin-intermediate Staphylococcus aureus ATCC 700699 assessed as inhibition of bacterial growth by broth dilution method; assay type: functional
# Enterococcus faecalis = test: Antibacterial activity against Enterococcus faecalis ATCC 29212 assessed as inhibition of bacterial growth by broth microdilution method; assay type: functional
# Enterococcus faecium = test: Antibacterial activity against vancomycin-resistant Enterococcus faecium ATCC 700221 assessed as inhibition of bacterial growth by broth microdilution method; assay type: functional
# Escherichia coli [10] = test: Antibacterial activity against Escherichia coli ATCC 25922 assessed as inhibition of bacterial growth by broth microdilution method; assay type: functional
# Enterobacter cloacae = test: Antibacterial activity against Enterobacter cloacae subsp. cloacae ATCC 13047 assessed as inhibition of bacterial growth by broth microdilution method; assay type: functional
# Pseudomonas aeruginosa = test: Antibacterial activity against Pseudomonas aeruginosa ATCC 27853 assessed as inhibition of bacterial growth by broth microdilution metho; assay type: functional
# Klebsiella pneumoniae = test: Antibacterial activity against Klebsiella pneumoniae ATCC 10031 assessed as inhibition of bacterial growth by broth microdilution method; assay type: functional
# Acinetobacter baumannii = test: Antibacterial activity against Acinetobacter baumannii ATCC 17978 assessed as inhibition of bacterial growth by broth microdilution method; assay type: functional
# MCF7 = test: Cytotoxicity against human MCF7 cells assessed as cell viability at 50 uM incubated for 72 hrs by CellTiter 96 aqueous one solution reagent based MTS assay relative to control; assay type: functional; conditions: read-out: Activity
# DNA gyrase [11] = biological target: DNA gyrase (Staphylococcus aureus, UniProt P0A0K8+P20831); test: Inhibition of Staphylococcus aureus DNA gyrase by supercoiling plate assay; assay type: protein-complex assay
# Escherichia coli [12] = test: Inhibition of Escherichia coli DNA topoisomerase-IV assessed as residual activity at 10 uM by relaxation plate assay relative to control
# [13] = Metabolic stability in human liver microsomes assessed as half life at 1 uM preincubated for 10 mins followed by NADPH addition and measured after 5 to 60 mins by LC-MS/MS analysis; assay type: ADME, Microsome; conditions: time 15-70 min
# [14] = Inhibition of Escherichia coli DNA topoisomerase-IV relaxation plate assay
# [15] = biological target: T1, DNA topoisomerase 2-alpha; test: Inhibition of human DNA topoisomerase 2-alpha using linear pBR322 as substrate assessed as conversion of NADH to NAD+ preincubated for 10 to 15 mins in presence of pyruvate kinase/lactate dehydrogenase mix followed by ATP addition and measured after 30 mins by ATPase assay
# T1 sequence (P11388 whole entry): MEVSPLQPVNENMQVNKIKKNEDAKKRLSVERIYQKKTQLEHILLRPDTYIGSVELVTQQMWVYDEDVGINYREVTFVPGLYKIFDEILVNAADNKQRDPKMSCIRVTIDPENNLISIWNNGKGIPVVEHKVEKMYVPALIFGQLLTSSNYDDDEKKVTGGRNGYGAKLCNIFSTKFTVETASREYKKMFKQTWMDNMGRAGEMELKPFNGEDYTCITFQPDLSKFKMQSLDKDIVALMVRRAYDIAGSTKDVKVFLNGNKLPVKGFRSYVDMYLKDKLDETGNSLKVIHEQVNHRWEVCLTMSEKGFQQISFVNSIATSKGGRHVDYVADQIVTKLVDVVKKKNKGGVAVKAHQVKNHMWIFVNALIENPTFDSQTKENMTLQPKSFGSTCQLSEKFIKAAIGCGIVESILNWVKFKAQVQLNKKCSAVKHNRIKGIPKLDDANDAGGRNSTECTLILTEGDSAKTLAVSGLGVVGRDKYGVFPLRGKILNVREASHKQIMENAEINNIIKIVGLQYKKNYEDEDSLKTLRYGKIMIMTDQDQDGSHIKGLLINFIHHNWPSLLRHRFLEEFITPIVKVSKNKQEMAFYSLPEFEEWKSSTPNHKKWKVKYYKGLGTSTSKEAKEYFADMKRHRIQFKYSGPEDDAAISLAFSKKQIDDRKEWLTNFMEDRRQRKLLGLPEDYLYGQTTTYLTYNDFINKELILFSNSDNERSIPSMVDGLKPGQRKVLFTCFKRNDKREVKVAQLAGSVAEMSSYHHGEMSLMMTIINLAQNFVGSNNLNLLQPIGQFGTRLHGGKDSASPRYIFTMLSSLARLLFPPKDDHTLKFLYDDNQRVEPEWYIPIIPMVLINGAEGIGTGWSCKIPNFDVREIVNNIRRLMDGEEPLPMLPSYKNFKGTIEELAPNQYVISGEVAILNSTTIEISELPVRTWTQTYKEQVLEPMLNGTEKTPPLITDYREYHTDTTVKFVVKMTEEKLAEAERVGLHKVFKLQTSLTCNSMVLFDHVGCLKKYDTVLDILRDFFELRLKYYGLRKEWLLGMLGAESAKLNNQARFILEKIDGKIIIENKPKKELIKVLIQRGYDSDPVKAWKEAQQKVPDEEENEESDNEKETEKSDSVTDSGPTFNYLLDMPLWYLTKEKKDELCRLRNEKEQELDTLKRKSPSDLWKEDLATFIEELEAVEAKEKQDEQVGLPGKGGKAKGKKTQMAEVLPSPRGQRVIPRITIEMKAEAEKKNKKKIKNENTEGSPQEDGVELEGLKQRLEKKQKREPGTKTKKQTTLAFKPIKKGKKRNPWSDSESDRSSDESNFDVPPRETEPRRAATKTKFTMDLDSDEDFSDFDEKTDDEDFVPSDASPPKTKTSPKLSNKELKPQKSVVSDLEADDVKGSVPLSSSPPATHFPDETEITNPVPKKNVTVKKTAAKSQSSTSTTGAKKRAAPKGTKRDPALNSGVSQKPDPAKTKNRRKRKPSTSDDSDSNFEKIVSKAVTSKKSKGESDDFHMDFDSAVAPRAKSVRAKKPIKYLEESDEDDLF
# Sequence of DNA gyrase (Staphylococcus aureus, UniProt P0A0K8+P20831) (P0A0K8 whole entry): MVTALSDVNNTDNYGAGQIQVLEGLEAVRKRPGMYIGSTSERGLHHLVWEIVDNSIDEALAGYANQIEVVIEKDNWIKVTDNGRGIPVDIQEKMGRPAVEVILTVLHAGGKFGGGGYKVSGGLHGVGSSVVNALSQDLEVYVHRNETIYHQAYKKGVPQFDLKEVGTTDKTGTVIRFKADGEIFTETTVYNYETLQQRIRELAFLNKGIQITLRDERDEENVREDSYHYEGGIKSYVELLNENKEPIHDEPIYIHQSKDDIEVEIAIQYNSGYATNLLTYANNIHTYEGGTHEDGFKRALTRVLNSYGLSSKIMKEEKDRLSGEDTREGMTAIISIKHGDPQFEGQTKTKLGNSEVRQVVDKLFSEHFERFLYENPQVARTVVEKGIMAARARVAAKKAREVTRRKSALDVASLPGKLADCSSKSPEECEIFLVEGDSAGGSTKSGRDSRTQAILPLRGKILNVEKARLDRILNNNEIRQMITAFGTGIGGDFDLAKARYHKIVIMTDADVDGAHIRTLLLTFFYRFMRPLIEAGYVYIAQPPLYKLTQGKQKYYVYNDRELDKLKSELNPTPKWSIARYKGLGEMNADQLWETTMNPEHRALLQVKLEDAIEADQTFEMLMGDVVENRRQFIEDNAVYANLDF
# Sequence of DNA gyrase (Staphylococcus aureus, UniProt P0A0K8+P20831) (P20831 whole entry): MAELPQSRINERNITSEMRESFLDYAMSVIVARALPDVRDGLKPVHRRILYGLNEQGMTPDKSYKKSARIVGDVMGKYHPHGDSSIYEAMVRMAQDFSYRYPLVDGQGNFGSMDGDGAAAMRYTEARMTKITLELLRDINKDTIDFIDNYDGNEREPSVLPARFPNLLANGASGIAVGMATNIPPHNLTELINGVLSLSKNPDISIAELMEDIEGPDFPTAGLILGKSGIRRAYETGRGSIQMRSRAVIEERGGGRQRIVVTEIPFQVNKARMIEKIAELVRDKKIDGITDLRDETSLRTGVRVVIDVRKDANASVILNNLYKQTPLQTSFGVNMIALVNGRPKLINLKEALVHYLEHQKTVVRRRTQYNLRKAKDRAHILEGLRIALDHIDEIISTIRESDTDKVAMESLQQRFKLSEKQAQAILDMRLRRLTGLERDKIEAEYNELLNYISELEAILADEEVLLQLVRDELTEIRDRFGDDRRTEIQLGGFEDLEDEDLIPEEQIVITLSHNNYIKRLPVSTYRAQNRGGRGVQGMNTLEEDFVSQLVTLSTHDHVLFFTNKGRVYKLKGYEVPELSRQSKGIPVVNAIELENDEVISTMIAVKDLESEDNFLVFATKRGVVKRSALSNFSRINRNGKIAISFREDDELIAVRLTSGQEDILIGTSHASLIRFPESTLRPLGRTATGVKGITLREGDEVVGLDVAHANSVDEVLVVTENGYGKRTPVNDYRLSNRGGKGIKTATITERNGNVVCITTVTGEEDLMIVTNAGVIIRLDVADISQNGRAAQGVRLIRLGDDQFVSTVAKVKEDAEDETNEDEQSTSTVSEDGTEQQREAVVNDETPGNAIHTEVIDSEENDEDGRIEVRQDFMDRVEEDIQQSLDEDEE
Structure (SMILES),microsomal CLint at 1 µM [1] [µL/min/mg],half-life at 1 µM [2] [h],microsomal CLint at 1 µM [3] [µL/min/mg],IC50 (DNA gyrase [4]) [nM],Activity [6] [%],MIC (Staphylococcus aureus [7]) [µg/mL],MIC (Staphylococcus aureus [8]) [µg/mL],MIC (Staphylococcus aureus [9]) [µg/mL],MIC (Enterococcus faecalis) [µg/mL],MIC (Enterococcus faecium) [µg/mL],MIC (Escherichia coli [10]) [µg/mL],MIC (Enterobacter cloacae) [µg/mL],MIC (Pseudomonas aeruginosa) [µg/mL],MIC (Klebsiella pneumoniae) [µg/mL],MIC (Acinetobacter baumannii) [µg/mL],viability at 50 µM (MCF7) [%],IC50 (DNA gyrase [11]) [nM],Activity (Escherichia coli [12]) [%],IC50 [14] [nM],further results
O=C(O)Cc1ccccc1Nc1c(Cl)cccc1Cl [DICLOFENAC],238,0.813,28.4,,,,,,,,,,,,,,,,,
Cc1[nH]c(C(=O)Nc2ccc(-c3noc(=O)[nH]3)cc2N2CCN(C(=O)OC(C)(C)C)CC2)c(Cl)c1Cl,18.2,> 2.42,< 9.6,13.7,95,> 64,> 64,< 0.031,< 0.031,0.25,> 64,> 64,> 64,> 64,> 64,78,,,,Activity (Escherichia coli [5]): 71%
Cc1[nH]c(C(=O)Nc2ccc(-n3nn[nH]c3=O)cc2N2CC[C@H](N)C2)c(Cl)c1Cl.Cl,,,,4.9,108,> 32,> 32,64,64,> 32,> 32,> 32,> 32,> 32,> 32,,121,26,,
Cc1[nH]c(C(=O)Nc2ccc(-n3nn[nH]c3=O)cc2N2Cc3ccccc3C2)c(Cl)c1Cl,17.3,> 2.42,< 9.6,111,97,16,> 64,> 64,0.25,0.5,> 64,> 64,> 64,> 64,> 64,89,,105,,half-life at 1 µM [13]: 1.33 h
Cc1[nH]c(C(=O)Nc2ccc(-c3noc(=O)[nH]3)cc2N2CCCC(CN)C2)c(Cl)c1Cl.Cl (configuration not stated),,,,3.19,93,4,4,2,0.25,2,> 64,> 64,> 64,2,> 64,88,24.1,,41.8,
Cc1[nH]c(C(=O)Nc2ccc(-c3nnn[nH]3)cc2N2CCOCC2)c(Cl)c1Cl,,,,44.5,,> 64,> 64,,,> 64,> 64,> 64,> 64,> 64,> 64,,,,,IC50 [15]: 39200 nM; Activity (Escherichia coli [5]): 77%
Cc1[nH]c(C(=O)Nc2ccc(-c3noc(=O)[nH]3)cc2N2CCN(c3ccccc3)CC2)c(Cl)c1Cl,< 9.6,> 2.42,< 9.6,109,98,4,0.063,2,0.125,4,> 64,> 64,> 64,> 64,> 64,68,,71,,half-life at 1 µM [13]: > 2.42 h
Cc1[nH]c(C(=O)Nc2ccc(-n3nn[nH]c3=O)cc2N2CC[C@H](NC(=O)OC(C)(C)C)C2)c(Cl)c1Cl,,,,212,95,,,,,,,,,,,,,72,,
Cc1[nH]c(C(=O)Nc2ccc(-c3noc(=O)[nH]3)cc2N2CCC(N)CC2)c(Cl)c1Cl.Cl,,,,0.253,,64,32,16,32,32,> 64,> 64,> 64,64,> 64,,,,187,IC50 [15]: 26200 nM
Cc1[nH]c(C(=O)Nc2ccc(-c3nnn[nH]3)cc2N2CCCC(CN)C2)c(Cl)c1Cl.Cl (configuration not stated),,,,2.16,91,16,> 64,> 64,8,16,> 64,> 64,> 64,64,> 64,117,35,,60.3,

# From ChEMBL document CHEMBL6071157, “Improved N-phenylpyrrolamide inhibitors of DNA gyrase as antibacterial agents for high-priority bacterial strains” (Eur J Med Chem, 2024)
